Like-named read-outs stand apart in the source and are kept apart here.
Tests used:
[1] = tested on: HIV-1; test: HIV inhibition assay of acutely infected CEM cells (tetrazolium based colorimetric, MTT); details: Human immunodeficiency virus 1, CCRF-CEM, 168 h
Description: The HIV inhibition assay method of acutely infected cells is an automated tetrazolium based colorimetric assay essentially that reported by Pauwles et al, J. Virol. […] Assays were performed in 96-well tissue culture plates. CEM cells, a CD4^+ cell line, were grown in RPMI-1640 medium (Gibco) supplemented with a 10% fetal calf serum and were then treated with polybrene (2µg/ml). An 80 µl volume of medium containing 1 x 10^4 cells was dispensed into each well of the tissue culture plate. To each well was added a 100µl volume of test compound dissolved in tissue culture medium (or medium without test compound as a control) to achieve the desired final concentration and the cells were incubated at 37°C for 1 hour. A frozen culture of HIV-1 was diluted in culture medium to a concentration of 5 x 10^4 TCID50 per ml (TCID50 = the dose of virus that infects 50% of cells in tissue culture), and a 20µL volume of the virus sample (containing 1000 TCID50 of virus) was added to wells containing test compound and to wells containing only medium (infected control cells). Several wells received culture medium without virus (uninfected control cells). Likewise, the intrinsic toxicity of the test compound was determined by adding medium without virus to several wells containing test compound.
In experiments 2 and 4 the final concentrations of test compounds were 1, 10, 100 and 500 µg/ml. Either azidothymidine (AZT) or dideoxyinosine (ddI) was included as a positive drug control. […] DMSO was added to all control wells at an appropriate concentration.
Following the addition of virus, cells were incubated at 37°C in a humidified, 5% CO2 atmosphere for 7 days. Test compounds could be added on days 0, 2 and 5 if desired. On day 7, post-infection, the cells in each well were resuspended and a 100µl sample of each cell suspension was removed for assay. A 20µL volume of a 5 mg/ml solution of 3-(4,5-dimethylthiazol-2-yl)-2,5-diphenyltetrazolium bromide (MTT) was added to each 100µL cell suspension, and the cells were incubated for 4 hours at 27°C in a 5% CO2 environment. […] To each sample was added 100µl of 10% sodium dodecylsulfate in 0.01 N HCl to lyse the cells, and samples were incubated overnight. The absorbance at 590 nm was determined for each sample using a Molecular Devices microplate reader. Absorbance values for each set of wells is compared to assess viral control infection, uninfected control cell response as well as test compound by cytotoxicity and antiviral efficacy.

[2] = tested on: CEM cells; test: Intrinsic toxicity of the test compound in CEM cells without virus (MTT); type: cell-based; details: Table 14, medium without virus, 7 days
From the text: Methods 20, 309-321 (1988).

[3] = molecular target: T1, HIV protease (Human immunodeficiency virus type 1 group M subtype B, UniProt P04585); test: biochemical; type: biochemical
T1 construct: HIV protease is diluted in the assay buffer to a final enzyme concentration of 12.3 nanomolar, based on a molecular weight of 10,780
Description: The enzyme method is described below. The substrate is 2-aminobenzoyl-Ile-Nle-Phe(p-NO2)-Gln-ArgNH2. The positive control is MVT-101 (Miller, M. et al, Science, 246, 1149 (1989)] The assay conditions are as follows:
The above described substrate is dissolved in DMSO, then diluted 10 fold in assay buffer. Final substrate concentration in the assay is 80 µM.
HIV protease is diluted in the assay buffer to a final enzyme concentration of 12.3 nanomolar, based on a molecular weight of 10,780.
The final concentration of DMSO is 14% and the final concentration of glycerol is 18%. The test compound is dissolved in DMSO and diluted in DMSO to 10x the test concentration; 10µl of the enzyme preparation is added, the materials mixed and then the mixture is incubated at ambient temperature for 15 minutes. The enzyme reaction is initiated by the addition of 40µl of substrate. The increase in fluorescence is monitored at 4 time points (0, 8, 16 and 24 minutes) at ambient temperature. Each assay is carried out in duplicate wells.

[4] = IC50, Table 13, 12.3 nanomolar enzyme, 80 µM substrate, pH 6.4, ambient temperature
[5] = IC50, Table 14, above-described enzyme assay
[6] = Table 13, 12.3 nanomolar enzyme, 80 µM substrate, pH 6.4, ambient temperature, read-out: IC50

SMILES: CCCCNC(=O)N(CC(C)C)C[C@@H](O)[C@H](Cc1ccccc1)NC(=O)[C@H](CC(N)=O)NC(=O)OCc1ccccc1
- EC50 [1]: 17000 nM
- TD50 [2]: 170 to 180 µM

SMILES: CC(C)CN(CC(O)C(Cc1ccccc1)NC(=O)C(CC(N)=O)NC(=O)c1ccc2ccccc2n1)C(=O)NC(C)(C)C (stereo not drawn) [Compound 1b, Butanediamide, N^1-[3-[[[(1,1-dimethylethyl)amino]carbonyl](2-methylpropyl)amino]-2-hydroxy-1-(phenylmethyl)propyl]-2-[(2-quinolinylcarbonyl)amino]-, [1S-[1R*(R*),2S*]]-]
- EC50 [1]: 10 nM
- TD50 [2]: 16 µM
- IC50 [3, 4]: 7.1 nM
- IC50 [3, 5]: 7 nM

SMILES: CC(C)(C)NC(=O)N(Cc1ccc2ccccc2c1)C[C@@H](O)[C@H](Cc1ccccc1)NC(=O)[C@H](CC(N)=O)NC(=O)OCc1ccccc1 [Compound 3a, Butanediamide, N^1-[3-[[[(1,1-dimethylethyl)amino]carbonyl](2-naphthylmethyl)amino]-2-hydroxy-1-(phenylmethyl)propyl]-2-[(N-benzyloxycarbonyl)amino]-, [1S-[1R*(R*), 2S*]]-]
- IC50 [3, 6]: 31 nM

SMILES: CC(C)(C)NC(=O)N(CCc1ccccc1)CC(O)C(Cc1ccccc1)NC(=O)C(CC(N)=O)NC(=O)c1ccc2ccccc2n1 (stereo not drawn) [Compound 4b, Butanediamide, N^1-[3-[[[(1,1-dimethylethyl)amino]carbonyl](2-phenylethyl)amino]-2-hydroxy-1-(phenylmethyl)propyl]-2-[(2-quinolinylcarbonyl)amino]-, [1S-[1R*(R*),2S*]]-]
- EC50 [1]: 28 nM
- TD50 [2]: 13 µM
- IC50 [3, 4]: 10 nM
- IC50 [3, 5]: 10 nM

SMILES: NC(=O)CC(NC(=O)c1ccc2ccccc2n1)C(=O)NC(Cc1ccccc1)C(O)CN(Cc1ccc(F)cc1)C(=O)N1CCCC1 (stereo not drawn) [Compound 9, Butanediamide, N^1-[2-hydroxy-3-[(4-fluorophenylmethyl)(1-pyrrolidinylcarbonyl)amino]-1-(phenylmethyl)propyl]-2-[(2-quinolinylcarbonyl)amino]-, [1S-[1R*(R*),2S*]]-]
- IC50 [3, 6]: 7 nM

SMILES: CC(C)CCN(C[C@@H](O)[C@H](Cc1ccccc1)NC(=O)[C@H](C)C(C)(C)C(N)=O)C(=O)NC(C)(C)C [Compound 10, Butanediamide, N^1-[3-[[[(1,1-dimethylethyl)amino]carbonyl](3-methylbutyl)amino]-2-hydroxy-1-(phenylmethyl)propyl]-2,3,3-trimethyl-, [1S-[1R*(2S*),2S*]]-]
- IC50 [3, 6]: 12 nM

SMILES: CC(C)CCN(C[C@@H](O)[C@H](Cc1ccccc1)NC(=O)[C@H](CC(N)=O)NC(=O)OCc1ccccc1)C(=O)NC(C)(C)C (relative stereo) [Compound 5a, Butanediamide, N^1-[3-[[[(1,1-dimethylethyl)amino]carbonyl](3,3-dimethylpropyl)amino]-2-hydroxy-1-(phenylmethyl)propyl]-2-[(N-benzyloxycarbonyl)amio], [1S-[1R*(R*),2S*]]-]
- IC50 ([3]; Table 13, 12.3 nanomolar enzyme, 80 µM substrate, pH 6.4, ambient temperature): 18 nM

SMILES: CC(C)(C)NC(=O)N(Cc1ccc2ccccc2c1)CC(O)C(Cc1ccccc1)NC(=O)C(CC(N)=O)NC(=O)c1ccc2ccccc2n1 (stereo not drawn) [Compound 3b, Butanediamide, N^1-[3-[[[(1,1-dimethylethyl)amino]carbonyl](2-naphthylmethyl)amino]-2-hydroxy-1-(phenylmethyl)propyl]-2-[(2-quinolinylcarbonyl)amino]-, [1S-[1R*(R*),2S*]]-]
- IC50 [3, 6]: 2.9 nM

SMILES: CC(=O)NCC(C)C(=O)NC(Cc1ccccc1)C(O)CN(CCC(C)C)C(=O)NC(C)(C)C (stereo not drawn) [Compound 7, Propanamide, 3-(acetylamino)-N-[3-[[[(11,-dimethylethyl)amino]carbonyl](3-methylbutyl)amino]-2-hydroxy-1-(phenylmethyl)propyl]-2-methyl-, [1S-[1R*(S*),2S*]]-]
- IC50 [3, 6]: 100 nM

SMILES: CC(C)CCN(CC(O)C(Cc1ccccc1)NC(=O)C(CC(N)=O)NC(=O)c1ccc2ccccc2n1)C(=O)NC(C)(C)C (stereo not drawn) [Compound 5b, Butanediamide, N^1-[3-[[[(1,1-dimethylethyl)amino]carbonyl](3,3-dimethylpropyl)amino]-2-hydroxy-1-(phenylmethyl)propyl]-2-[(2-quinolinylcarbonyl)amino]-, [1S-[1R*(R*),2S*]]-]
- IC50 [3, 6]: 3.7 nM

SMILES: CC(C)CCN(C[C@@H](O)[C@H](Cc1ccccc1)NC(=O)[C@H](CC(N)=O)NC(=O)OCc1ccccc1)C(=O)NC(C)(C)C [Compound 2a, Butanediamide, N^1-[3-[[[(1,1-dimethylethyl)amino]carbonyl](3-methylbutyl)amino]-2-hydroxy-1-(phenylmethyl)propyl]-2-[(N-benzyloxycarbonyl)amino], [1S-[1R*(R*),2S*]]-]
- IC50 [3, 6]: 13.4 nM

SMILES: CC(C)CCN(CC(O)C(Cc1ccccc1)NC(=O)C(C)CS(C)(=O)=O)C(=O)NC(C)(C)C (stereo not drawn) [Compound 6, Propanamide, N-[3-[[[(1,1-dimethylethyl)amino]carbonyl](3-methylbutyl)amino]-2-hydroxy-1-(phenylmethyl)propyl]-2-methyl-3-(methylsulfonyl)-, [1S-[1R*(R*), 2S*]]-]
- IC50 [3, 6]: 29 nM

SMILES: COc1ccc(COC(=O)NC[C@@H](C)C(=O)N[C@@H](Cc2ccccc2)[C@H](O)CN(CCC(C)C)C(=O)NC(C)(C)C)cc1 [Compound 8, Propanamide, 3-(4-methoxybenzyloxy-carbonyl)amino-N-[3-[[[(11,-dimethylethyl)amino]carbonyl](3-methylbutyl)amino]-2-hydroxy-1-(phenylmethyl)propyl]-2-methyl-, [1S-[1R*(S*),2S*]]-]
- IC50 [3, 4]: 6 nM

SMILES: CCCCNC(=O)N(CC(C)C)C[C@@H](O)[C@H](Cc1ccccc1)NC(=O)[C@H](CC(N)=O)NC(=O)c1ccc2ccccc2n1 [butanediamide N^1[3-[[[n-butylamino]carbonyl](2-methylpropyl)amino]-2-hydroxy-1-(phenylmethyl)propyl]-2-[(2-quinolinylcarbonyl)amino]-[1S-[1R*(R*), 2S*]]-.]
- EC50 [1]: 26 nM
- TD50 [2]: 53 µM

SMILES: CC(=O)N[C@H](C(=O)N[C@@H](Cc1ccccc1)[C@H](O)CN(CCC(C)C)C(=O)NC(C)(C)C)C(C)(C)C [Compound 12, Butaneamide,2-(acetylamino)-N-[3-[[[(1,1-dimethylethyl)amino]-carbonyl](3-methylbutyl)amino]-2-hydroxy-1-(phenylmethyl)propyl]-3,3-dimethyl-, [1S-[1R*(R*),2S*]]-]
- IC50 [3, 6]: 18 nM

SMILES: CC(C)CCN(CC(O)C(Cc1ccccc1)NC(=O)C(CC(N)=O)NC(=O)c1ccc2ccccc2n1)C(=O)NC(C)(C)C (stereo not drawn) [Compound 2b, Butanediamide, N^1-[3-[[[(1,1-dimethylethyl)amino]carbonyl](3-methylbutyl)amino]-2-hydroxy-1-(phenylmethyl)propyl]-2-[(2-quinolinylcarbonyl)amino]-, [1S-[1R*(R*),2S*]]-]
- IC50 [3, 4]: 3.2 nM

SMILES: CC(C)CCN(C[C@@H](O)[C@H](Cc1ccccc1)NC(=O)[C@H](C)C(C)(C)C(=O)O)C(=O)NC(C)(C)C [Compound 11, Butanoic acid, 4-[[3-[[[(1,1-dimethylethyl)amino]carbonyl] (3-methylbutyl)amino]-2-hydroxy-1-(phenylmethyl)propyl]amino-2,2,3-trimethyl-4-oxo-, [1S-[1R*(3S*), 2S*]]-]
- IC50 [3, 4]: 8 nM

SMILES: CC(C)(C)NC(=O)N(CCc1ccccc1)CC(O)C(Cc1ccccc1)NC(=O)C(CC(N)=O)NC(=O)OCc1ccccc1 (stereo not drawn) [Compound 4a, Butanediamide, N^1-[3-[[[(1,1-dimethylethyl)amino]carbonyl](2-phenylethyl)amino]-2-hydroxy-1-(phenylmethyl)propyl]-2-[(N-benzyloxycarbonyl)amino]-, [1S-[1R*(R*),2S*]]-]
- IC50 [3, 6]: 70 nM

— EP0813867B1, “Retroviral protease inhibitors” (priority 1990, dated 1992)
